Test results published in patent EP2208725A1, “Novel specific inhibitors of ubiquitin specific protease 7, the pharmaceutical compositions thereof and their therapeutic applications” (Hybrigenics S.A., priority 2009, dated 2010).

Biological target: T1, UCH-L3 (Homo sapiens, UniProt P15374)
T1 sequence (P15374 1-230): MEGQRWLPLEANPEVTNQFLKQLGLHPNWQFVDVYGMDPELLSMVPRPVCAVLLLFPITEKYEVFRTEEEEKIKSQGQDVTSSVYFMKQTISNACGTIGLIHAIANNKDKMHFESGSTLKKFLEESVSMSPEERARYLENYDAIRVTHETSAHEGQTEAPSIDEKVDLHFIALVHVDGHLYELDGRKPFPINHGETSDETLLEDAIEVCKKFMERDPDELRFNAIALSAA
Experiment: UCH-L3 activity assay (Ub-AMC)
Format: biochemical
Details: 400 nM Ub-AMC, 13 pM enzyme; compounds tested from 200 µM to 91 nM; unit inferred; read-out: Inhibition of cysteine protease activities: Uch-L3
Method: UCH-L3 was diluted in USP buffer (50 mM Tris HCl; 0.5 mM EDTA; 5 mM DTT; 0.01% Triton X-100; Bovine Serum Albumin 0.05 mg.ml^-1 pH7.6). Compounds stocks (100 mM) were stored at -20°C in DMSO. Compounds were tested at different concentrations: from 200 µM to 91 nM. Reactions were performed as duplicates in Black LJL 96 well plates (HE microplates; Molecular Devices; 20 µl final reaction volume). The substrate concentration for UCH-L3 was 400 nM Ub-AMC (Boston Biochem). The concentration of the enzyme (UCH-L3) in specificity assays was 13 pM. The concentrations were determined in order to perform specificity assays under initial velocities at fixed substrate concentration. Compounds were pre-incubated with enzymes for 30 minutes at 25°C. Reactions were initiated by addition of substrate to the plates containing the enzymes (+/- compounds) diluted in assay buffer. Reactions were incubated for 60 minutes at 37°C. Reactions were stopped by adding acetic acid (100 mM final). Readings were performed on a Pherastar Fluorescent Reader (BMG). λ Emission 380 nm; λ Excitation = 460 nm. Data (mean values +/- standard deviation) were analyzed as % of control (no compound) and plotted as percentage versus the Log of the compound concentration using GraphPad (Prism). Data were fitted to a sigmoidal model (variable slope).

Compound | IC50 [µM]
CC(=O)C1=C(O)C(=O)N(CCc2ccc(Cl)cc2)C1c1ccc(Br)cc1 (stereo not shown) [Example 25, 4-acetyl-5-(4-bromo-phenyl)-1-[2-(4-chloro-phenyl)-ethyl]-3-hydroxy-1,5-dihydro-pyrrol-2-one] | > 200
CC(=O)C1=C(O)C(=O)N(CCc2ccc(Br)cc2)C1c1ccc(Br)cc1 (stereo not shown) [Example 26, 4-acetyl-5-(4-bromo-phenyl)-1-[2-(4-bromo-phenyl)-ethyl]-3-hydroxy-1,5-dihydro-pyrrol-2-one] | > 200
CC(=O)C1=C(O)C(=O)N(CCc2ccc(Cl)c(Cl)c2)C1c1ccc(Br)cc1 (stereo not shown) [Example 28, 4-acetyl-5-(4-bromo-phenyl)-1-[2-(3,4-dichloro-phenyl)-ethyl]-3-hydroxy-1,5-dihydro-pyrrol-2-one] | > 200
COc1cccc(CCN2C(=O)C(O)=C(C(C)=O)C2c2ccc(Br)cc2)c1 (stereo not shown) [Example 30, 4-acetyl-5-(4-bromo-phenyl)-3-hydroxy-1-[2-(3-methoxyphenyl)-ethyl]-1,5-dihydro-pyrrol-2-one] | > 200
COc1ccc(CCN2C(=O)C(O)=C(C(C)=O)C2c2ccc(Br)cc2)cc1 (stereo not shown) [Example 32, 4-acetyl-5-(4-bromo-phenyl)-3-hydroxy-1-[2-(4-methoxyphenyl)-ethyl]-1,5-dihydro-pyrrol-2-one] | > 200
CC(=O)C1=C(O)C(=O)N(CCc2ccc(F)cc2)C1c1ccc(Br)cc1 (stereo not shown) [Example 33, 4-acetyl-5-(4-bromo-phenyl)-3-hydroxy-1-[2-(4-fluorophenyl)-ethyl]-1,5-dihydro-pyrrol-2-one] | > 200
CCOc1ccc(CCN2C(=O)C(O)=C(C(C)=O)C2c2ccc(Br)cc2)cc1 (stereo not shown) [Example 34, 4-acetyl-5-(4-bromo-phenyl)-3-hydroxy-1-[2-(4-ethoxy-phenyl)-ethyl]-1,5-dihydro-pyrrol-2-one] | > 200
CC(=O)C1=C(O)C(=O)N(CCc2ccccc2)C1c1ccc2c(c1)OCO2 (stereo not shown) [Example 37, 4-acetyl-5-benzo[1,3]dioxol-5-yl-3-hydroxy-1-phenethyl-1,5-dihydro-pyrrol-2-one] | > 200
CC(=O)C1=C(O)C(=O)N(CCc2ccccc2)C1c1ccc(Br)c(Br)c1 (stereo not shown) [Example 41, 4-acetyl-5-(3,4-dibromo-phenyl)-3-hydroxy-1-phenethyl-1,5-dihydro-pyrrol-2-one] | > 200
CC(=O)C1=C(O)C(=O)N(CCc2ccccc2)C1c1cccnc1Cl (stereo not shown) [Example 42, 4-acetyl-5-(2-chloro-pyridin-3-yl)-3-hydroxy-1-phenethyl-1,5-dihydro-pyrrol-2-one] | > 200
CC(=O)C1=C(O)C(=O)N(CCc2ccc(Br)cc2)C1c1ccc(Cl)cc1 (stereo not shown) [Example 45, 4-Acetyl-5-(4-chlorophenyl)-1-[2-(4-bromophenyl)-ethyl]-3-hydroxy-1,5-dihydro-pyrrol-2-one] | > 200
CC(=O)C1=C(O)C(=O)N(CCc2ccc(Cl)cc2)C1c1ccc(Cl)cc1 (stereo not shown) [Example 46, 4-Acetyl-5-(4-chlorophenyl)-1-[2-(4-chlorophenyl)-ethyl]-3-hydroxy-1,5-dihydro-pyrrol-2-one] | > 200
CC(=O)C1=C(O)C(=O)N(CCc2ccc(Cl)cc2Cl)C1c1ccc(Br)cc1 (stereo not shown) [Example 47, 4-Acetyl-5-(4-bromophenyl)-1-[2-(2,4-dichlorophenyl)-ethyl]-3-hydroxy-1,5-dihydro-pyrrol-2-one] | > 200
